According to patent US20250186486A1, “POTENTIATION OF DURABLE ANTITUMOR IMMUNITY BY MULTIFACTORIAL IMMUNE MODULATION” (BAYLOR COLLEGE OF MEDICINE, priority 2022, published 2025):

Legend:
[1] = test system: 4T-1 TNBC cells; assay: Subcutaneous 4T-1 TNBC tumor model, intratumoral injection; tumor growth by caliper/IVIS, survival; format: in vivo, Balb/c mice; details: 4T-1 s.c.; for impact on tumor growth: injected intratumorally on day 12, caliper (FIGS. 7, 8)
Excerpt: Mice. 6-10 week old female Balb/c mice or C57BL/6 animals of both sexes were procured from Baylor College of Medicine or Jackson Laboratories (Bar Harbor, ME). Th-MYCN mice in the 129X1/SvJ background were a kind gift from Dr. William Weiss (UCSF, San Francisco, CA) and were bred in house. All mice were maintained in accordance with the specific IACUC requirements of Baylor College of Medicine and in accordance with animal protocol AN-8375.
Tumor Implantation and Measurements. 500,000 4T-1 TNBC cells (+/−luc2 transduction) were subcutaneously injected onto the hind quarters/back of each mouse and allowed time to reach palpation (approximately 50-100 mm^3) before treatment. For orthotopic 4T-1 experiments, 500,000 4T-1 cells were implanted in the mammary fat pad according to the method of Zhang et al.^34 Following establishment of tumors, experimental cohorts were assembled by means of stratified randomization. Attempts were made to minimize confounding variables such as order of cohort treatment, order of tumor measurement, and cage location by means of simple randomization. Tumors were treated with either the indicated antitumor regimen or vehicle control and measured by IVIS imaging (if applicable) or calculated by caliper measurement. 100,000 MOC-2 HNSCC cells were subcutaneously injected onto the hind quarters/back of each mouse and allowed to become palpable (approximately 50-100 mm^3) before treatment. Tumor size and progression were determined by caliper measurement. Single cell suspensions were generated from Th-MYCN tumors according to the method of Kroesen et al.^12 Suspensions were subcutaneously injected onto the hind quarters/back of each mouse and allowed time to reach palpation (approximately 50-100 mm^3) before treatment. Tumor size and progression were determined by caliper measurement. Tumor volumes were calculated by measuring in two dimensions according to the formula (longest length^2)×shortest length.
IVIS Imaging. Post tumor implantation, mice were injected with […] of 10 mg/ml D-Luciferin (Regis Technologies, Morton Grove, IL), incubated for 7 min and bio-luminescence was measured with the IVIS imaging system (Caliper Life Sciences, Waltham, MA) following a 60 second exposure. Imaging was performed at 2-4 day intervals.
Antitumor reagents. For optimization in the TNBC model, all reagents were dissolved in either DMSO or sterile water based on solubility requirements and included Copper(II) diethyldithiocarbamate at 85 μg/50 μl (VWR, Radnor, PA), 2-Cl-IB-MECA at 20 μg/50 μl (Millipore, Burlington, MA), DMXAA at […]/50 μl (R&D Systems, Minneapolis, MN), 5′ppp-dsRNA/Lyovec at 375 ng/50 μl (Invivogen, San Diego, CA), R848 at 15 μg/50 μl (Invivogen), galunisertib at […]/50 μl (Selleckchem, Houston, TX), epcadostat at […]/50 μl (Selleckchem), N^w-Hydroxy-nor-L-arginine at 6 μg/50 μl (Sigma-Aldrich, St. Louis, MO), L-NMMA at 100 ng/50 μl (Abcam, Boston, MA), clodronate at […]/50 μl (Abcam), and 4-1BB ligand at 1 μg/50 μl (NovusBio). Combinatorial treatments were reconstituted as a 10× stock, combined as necessary, and diluted to a 1× concentration with the appropriate diluent. Treatments were intratumorally injected with a 28 gauge needle as a 50 μl bolus. […]
Statistical Analysis. Significance of differences, unless stated otherwise, was determined by one-way analysis of variance (ANOVA) using Tukey's honestly significant difference (HSD) post hoc test. […]

[2] = test system: 4T-1 luc-2+ cells; assay: Orthotopic 4T-1 TNBC model (mammary fat pad), intratumoral treatment, IVIS; format: in vivo, Balb/c mice; details: 4T-1 luc-2+ in mammary fat pad, intratumoral treatment from day 7
Protocol: Lastly, the boosting regimen was combined together with regimen 16 and performed a dose response analysis at 1×, 0.5×, 0.125×, 0.0625×, and 0.03125× concentrations. […] Similar to the experiment outlined in FIGS. 1C-D, this experiment was performed with the 4T-1 luc2^neg parent cell line to validate that protective immune responses were not dependent upon the presence of xenogeneic luciferase. The treatment model was next validated in the orthotopic setting (Zhang et al., 2019). In this series of experiments, 500,000 4T-1 luc-2^+ cells were implanted under the fourth nipple of the mammary fat pad. […]
Tumor Implantation and Measurements. […] Tumors were treated with either the indicated antitumor regimen or vehicle control and measured by IVIS imaging (if applicable) or calculated by caliper measurement. […] Tumor size and progression were determined by caliper measurement. […] Tumor size and progression were determined by caliper measurement. Tumor volumes were calculated by measuring in two dimensions according to the formula (longest length^2)×shortest length.
IVIS Imaging. Post tumor implantation, mice were injected with […] of 10 mg/ml D-Luciferin (Regis Technologies, Morton Grove, IL), incubated for 7 min and bio-luminescence was measured with the IVIS imaging system (Caliper Life Sciences, Waltham, MA) following a 60 second exposure. […]

| Compound | impact on tumor growth [1] | also measured |
| --- | --- | --- |
| 4-1BBL: 4-1BB ligand (NovusBio), 4-1BB agonist | – | effect of presence of 4-1BBL on anti-tumor effects of the TLR, STING and RLR agents ([1]; FIG. 8): antagonized the anti-tumor effects |
| CC(=O)O.CNC(=N)NCCC[C@H](N)C(=O)O [L-NMMA, L-NG-monomethyl arginine acetate] | no beneficial impact on tumor growth | – |
| N=C(NO)NCC[C@H](N)C(=O)O [No-hydroxy-nor-L-arginine] | no beneficial impact on tumor growth | – |
| O=P(O)(O)C(Cl)(Cl)P(=O)(O)O [clodronate] | no beneficial impact on tumor growth | – |
| NS(=O)(=O)NCCNc1nonc1C(=NO)Nc1ccc(F)c(Br)c1 [epacadostat] | no beneficial impact on tumor growth | – |
| Cc1cccc(-c2nn3c(c2-c2ccnc4ccc(C(N)=O)cc24)CCC3)n1 [galunersitib, galunisertib] | – | tumor growth in the orthotopic setting [2]: no impact on tumor growth |
